{
  "source": "patent US8926994B2",
  "about": "“Mesoporous silicon particles for the presentation of tumor antigens and adjuvant for anti-cancer immunity” (The Methodist Hospital Research Institute, priority 2011, dated 2015)",
  "origin": "cited, not measured here",
  "test_system": "endothelial cells",
  "data": [
    {"smiles": "N.N.[Cl][Pt][Cl]", "note": "[cis-platin]", "values": [
      {"measurement": "relative cell cycle composition / mitosis (propidium iodide DNA content)", "setting": "12 and 24 hr, 10:1 microparticles:cell", "value": "inhibited cellular mitosis"},
      {"measurement": "apoptotic volume (cell death)", "setting": "flow cytometry", "value": "major accumulation of cell fragments"}
    ]}
  ]
}
